Activity calls are given as the source filed them. How the calls were made is not given here.
Molecular target: intestinal alkaline phosphatase Alpi (Mus musculus)
Experiment: mouse IAP enzyme activators, SAR follow-up, human IAP activator project, biochemical (AID 493128)
Conditions: purified mouse IAP enzyme activity, activation

EC50	IC50 (inhibition of IAP activity) [µM]	SMILES
> 100 µM (inactive)	–	COc1cc(OC)cc(C(=O)NNC(=O)c2nn(C)c(=O)c3ccccc23)c1
> 100 µM (inactive)	–	CC(=O)Nc1ccc(/C=N/NC(=O)C(=O)N/N=C/c2ccc(NC(C)=O)cc2)cc1
> 100 µM (inactive)	–	Cc1cc(C(=O)NN=Cc2cc(Cl)cc([N+](=O)[O-])c2O)n[nH]1
> 100 µM (inactive)	–	O=C(NN=Cc1c(O)ccc2ccccc12)c1[nH]ncc1Br
> 100 µM (inactive)	–	Cc1ccc(O)c(C=NNC(=O)c2[nH]ncc2Br)c1
> 100 µM (inactive)	–	Cc1cc(C(=O)N/N=C/c2cc(Br)ccc2O)n[nH]1
> 100 µM (inactive)	–	Cc1ccc(-c2cc(C(=O)NN=Cc3ccccc3O)n[nH]2)o1
> 100 µM (inactive)	–	COc1cccc(C=NNC(=O)C(=O)NN=Cc2cccc(OC)c2O)c1O
> 100 µM (inactive)	–	O=C(N/N=C/c1ccc(O)cc1)C(=O)N/N=C/c1ccc(O)cc1
> 100 µM (inactive)	–	O=C(N/N=C/c1ccccc1O)c1n[nH]c2c1CCC2
> 100 µM (inactive)	–	COc1ccc(-c2cc(C(=O)NN=Cc3c(O)ccc4ccccc34)[nH]n2)cc1
> 100 µM (inactive)	–	COc1ccc(/C=N/NC(=O)C(=O)N/N=C/c2ccc(OC)c(OC)c2)cc1OC
> 100 µM (inactive)	–	O=C(N/N=C\c1ccc2c(c1)OCO2)C(=O)N/N=C/c1ccc2c(c1)OCO2
> 100 µM (inactive)	–	O=C(N/N=C/c1ccc2c(c1)OCO2)C(=O)N/N=C/c1ccc2c(c1)OCO2
> 100 µM (inactive)	–	CC(C)C(=O)NC(=S)Nc1ccccc1C(=O)Nc1ccccc1
> 100 µM (inactive)	–	COc1ccc(OC)c(/C=N/NC(=O)C(=O)N/N=C/c2cc(OC)ccc2OC)c1
> 100 µM (inactive)	–	O=C(N/N=C\c1cccc(O)c1)C(=O)N/N=C/c1cccc(O)c1
> 100 µM (inactive)	–	CC(=O)Nc1cccc(C(=O)NNC(=O)c2n[nH]c(=O)c3ccccc23)c1
> 100 µM (inactive)	–	O=C(CCN1C(=O)/C(=C/c2ccccc2Cl)SC1=S)NNC(=O)c1ccccc1O

EC50	IC50 (inhibition of IAP activity) [µM]	SMILES
> 100 µM (inactive)	–	COc1ccc(-c2csc(Nc3cccc4ccccc34)n2)cc1F
> 100 µM (inactive)	–	O=C(N/N=C/c1cc(Br)ccc1O)c1cc(C2CC2)[nH]n1
> 100 µM (inactive)	–	O=C(NN=Cc1ccc(O)cc1O)C(=O)NN=Cc1ccc(O)cc1O
> 100 µM (inactive)	–	O=C(N/N=C/c1cc(Br)ccc1O)C(=O)N/N=C/c1cc(Br)ccc1O
> 100 µM (inactive)	–	COc1cccc(C=NNC(=O)c2cc(-c3cccn3C)n[nH]2)c1O
> 100 µM (inactive)	–	CCOc1cc(/C=N/NC(=O)C(=O)N/N=C/c2ccc(O)c(OCC)c2)ccc1O
> 100 µM (inactive)	–	COC(=O)c1ccc(/C=N/NC(=O)C(=O)N/N=C/c2ccc(C(=O)OC)cc2)cc1
> 100 µM (inactive)	–	COc1cc(/C=N/NC(=O)C(=O)N/N=C/c2cc(OC)c(OC)c(OC)c2)cc(OC)c1OC
> 100 µM (inactive)	–	Cc1cc(C(=O)NN=Cc2cccc([N+](=O)[O-])c2O)n[nH]1
> 100 µM (inactive)	–	Cc1cc(C(=O)N/N=C\c2cc(C(C)(C)C)ccc2O)n[nH]1
> 100 µM (inactive)	–	CCOc1cccc(C=NNC(=O)c2cc(-c3cccn3C)n[nH]2)c1O
> 100 µM (inactive)	–	COc1cc(/C=N\NC(=O)C(=O)N/N=C/c2cc(OC)c(O)c(OC)c2)cc(OC)c1O
> 100 µM (inactive)	–	CC(C)Oc1ccccc1/C=N/NC(=O)C(=O)N/N=C/c1ccccc1OC(C)C
> 100 µM (inactive)	–	CCN(CC)c1ccc(/C=N/NC(=O)C(=O)N/N=C/c2ccc(N(CC)CC)cc2O)c(O)c1
> 100 µM (inactive)	–	C/C(=N\NC(=O)c1[nH]nc2c1CCc1ccccc1-2)c1ccccc1O
> 100 µM (inactive)	–	CC(=NNC(=O)C(=O)NN=C(C)c1cccc(O)c1)c1cccc(O)c1
> 100 µM (inactive)	–	COc1cccc(C=NNC(=O)C2=NNC(=O)C2C)c1O (stereo unspecified)
> 100 µM (inactive)	–	O=C(NC(=S)NNC(=O)c1ccccc1O)c1ccc(F)cc1
> 100 µM (inactive)	–	OC(c1nc2ccc(F)cc2[nH]1)C(O)c1nc2ccc(F)cc2[nH]1 (stereo unspecified)

EC50	IC50 (inhibition of IAP activity) [µM]	SMILES
> 100 µM (inactive)	–	O=C(N/N=C/c1ccccc1C(=O)O)C(=O)N/N=C/c1ccccc1C(=O)O
> 100 µM (inactive)	–	C/C(=N\NC(=O)c1cc(C)[nH]n1)c1ccc2ccccc2c1O
> 100 µM (inactive)	–	CC1C(=O)NN=C1C(=O)NN=Cc1ccc(O)cc1O (stereo unspecified)
> 100 µM (inactive)	–	O=C(NN=Cc1ccccc1)C(=O)NN=Cc1ccccc1
> 100 µM (inactive)	–	CN(C)c1ccc(/C=N/NC(=O)C(=O)N/N=C/c2ccc(N(C)C)cc2)cc1
> 100 µM (inactive)	–	COc1cccc(C=NNC(=O)c2[nH]nc3c2CCc2ccccc2-3)c1O
> 100 µM (inactive)	–	Cn1cccc1-c1cc(C(=O)NN=Cc2cc(Br)ccc2O)[nH]n1
> 100 µM (inactive)	–	O=C(NNC(=S)NC(=O)c1ccccc1[N+](=O)[O-])c1ccccc1O
> 100 µM (inactive)	–	O=C(N/N=C/c1c(O)ccc2ccccc12)c1cc(-c2cccs2)[nH]n1
> 100 µM (inactive)	–	COc1cccc(C=NNC(=O)C(=O)NN=Cc2cccc(OC)c2OC)c1OC
> 100 µM (inactive)	–	COc1cc(/C=N/NC(=O)C(=O)N/N=C/c2ccc(O)c(OC)c2)ccc1O
> 100 µM (inactive)	–	N#CCOc1ccccc1/C=N/NC(=O)C(=O)N/N=C/c1ccccc1OCC#N
> 100 µM (inactive)	–	O=C(N/N=C/c1c(O)ccc2ccccc12)C(=O)N/N=C/c1c(O)ccc2ccccc12
> 100 µM (inactive)	–	CCCCOc1ccc(/C=N/NC(=O)C(=O)N/N=C/c2ccc(OCCCC)cc2)cc1
> 100 µM (inactive)	–	O=C(N/N=C/c1ccccc1O)c1cc(C2CC2)[nH]n1
> 100 µM (inactive)	–	COc1cc(OC)c(OC)cc1/C=N/NC(=O)C(=O)N/N=C/c1cc(OC)c(OC)cc1OC
> 100 µM (inactive)	–	CCOc1cccc(C=NNC(=O)c2cc(C3CC3)[nH]n2)c1O
–	0.382	O=C1Nc2ccc(Br)cc2C12NNc1ccccc1O2 (stereo unspecified)

From PubChem BioAssay AID493128 (Sanford-Burnham Center for Chemical Genomics, 2011)
